Patent EP2264010A1, “Hetarylamidines” (Bayer CropScience AG, priority 2009, dated 2010)

Experiments:
CYPES = experiment: Herbicidal activity, test type PE; format: in vivo; details: TEST-TYP PE, 320 G/HA
SETVI = experiment: Herbicidal activity, test type PE; format: in vivo; details: TEST-TYP PE, read-out: herbizide Wirkung SETVI
AMARE [1] = experiment: Herbicidal activity, test type PE; format: in vivo; details: Amaranthus retroflexus, TEST-TYP PE, read-out: herbizide Wirkung AMARE
VIOTR [2] = experiment: Herbicidal activity, test type PO; format: in vivo; details: TEST-TYP PO, 80 G/HA
VERPE [3] = experiment: Herbicidal activity, test type PE; format: in vivo; details: TEST-TYP PE, read-out: herbizide Wirkung VERPE
STEME = experiment: Herbicidal activity, test type PE; format: in vivo; details: TEST-TYP PE, read-out: herbizide Wirkung STEME
MATIN = experiment: Herbicidal activity, test type PE; format: in vivo; details: TEST-TYP PE, read-out: herbizide Wirkung MATIN
ALOMY = experiment: Herbicidal activity, test type PE; format: in vivo; details: TEST-TYP PE, 320 G/HA
VIOTR [4] = experiment: Herbicidal activity, test type PE; format: in vivo; details: TEST-TYP PE, read-out: herbizide Wirkung VIOTR
Tetranychus urticae = experiment: Tetranychus test, OP-resistant (TETRUR spray treatment); format: in vivo; details: topical, bean leaf discs (Phaseolus vulgaris), read-out: Wirkung
From the text: Zur Herstellung einer zweckmäßigen Wirkstoffzubereitung vermischt man 1 Gewichtsteil Wirkstoff mit den angegebenen Mengen Lösungsmittel und Emulgator und verdünnt das Konzentrat mit emulgatorhaltigem Wasser auf die gewünschte Konzentration.
Bohnenblattscheiben (Phaseolus vulgaris), die von allen Stadien der Gemeinen Spinnmilbe (Tetranychus urticae) befallen sind, werden mit einer Wirkstoffzubereitung der gewünschten Konzentration gespritzt.
Nach der gewünschten Zeit wird die Wirkung in % bestimmt. Dabei bedeutet 100 %, dass alle Spinnmilben abgetötet wurden; 0 % bedeutet, dass keine Spinnmilben abgetötet wurden.

VERPE [5] = experiment: Herbicidal activity, test type PO; format: in vivo; details: TEST-TYP PO, 80 G/HA
AMARE [6] = experiment: Herbicidal activity, test type PO; format: in vivo; details: TEST-TYP PO, 80 G/HA
LOLMU = experiment: Herbicidal activity, test type PE; format: in vivo; details: TEST-TYP PE, read-out: herbizide Wirkung LOLMU
[7] = logP by HPLC on reversed-phase columns (C 18), EEC Directive 79/831 Annex V.A8; format: physicochemical; details: c18 reversed-phase hplc, reversed-phase (C 18), read-out: log p
From the text: Die Messung der logP Werte erfolgte gemäß EEC Directive 79/831 Annex V.A8 durch HPLC (High Performance Liquid Chromatography) an reversed-phase Säulen (C 18), mit der nachfolgenden Methode: […]

FC(F)(F)c1cccc(-c2cc(Cl)cnc2N=CN2CCCC2)c1 [compound 38]
herbizide Wirkung CYPES (CYPES): 100 | pest or weed control at 320 g/ha (SETVI): 90% | pest or weed control at 320 g/ha (AMARE [1]): 80%

CCN(C)C=Nc1ncc(Cl)cc1-c1cccc(C(F)(F)F)c1 [compound 33]
herbizide Wirkung VIOTR (VIOTR [2]): 90 | pest or weed control at 320 g/ha (VERPE [3]): 100% | pest or weed control at 320 g/ha (STEME): 80% | pest or weed control at 320 g/ha (MATIN): 80% | herbizide Wirkung ALOMY (ALOMY): 80 | pest or weed control at 320 g/ha (VIOTR [4]): 100% | mortality at 500 g/ha, 500 g/ha (Tetranychus urticae): > 80% | herbizide Wirkung VERPE (VERPE [5]): 80 | herbizide Wirkung AMARE (AMARE [6]): 80 | pest or weed control at 320 g/ha (SETVI): 80% | pest or weed control at 320 g/ha (AMARE [1]): 100%

CCN(C=Nc1ncc(Cl)cc1-c1cccc(C(F)(F)F)c1)CC [compound 36]
herbizide Wirkung CYPES (CYPES): 100 | pest or weed control at 320 g/ha (VERPE [3]): 90% | pest or weed control at 320 g/ha (LOLMU): 80% | pest or weed control at 320 g/ha (VIOTR [4]): 100% | pest or weed control at 320 g/ha (SETVI): 90%

CCN(C)C=Nc1ncc(Cl)cc1-c1ccc(C(F)(F)F)c(Cl)c1 [compound 24]
chromatographic logP [7]: 2.88 | mortality at 500 g/ha, 500 g/ha (Tetranychus urticae): > 80%
